Reference: patent US11230542B2, “Inhibitors of integrated stress response pathway” (Praxis Biotech LLC, priority 2017, dated 2022)
Read-outs that look alike come from different tables or passages of the source.

Experiments:
CHO cells = assay: Protein translation assay (puromycin incorporation in CHO cells, unstressed or Tg-stressed); assay type: cell-based, Chinese hamster; details: for activity at 0.1 µM / activity at 1 µM: Cricetulus griseus, media alone 100%; for activity at 0.1 µM: read-out: % Recovery of protein expression (100 nM test compound)
Description: CHO cells were maintained at 37° C. and 5% CO2 in DMEM supplemented with 10% fetal bovine serum (FBS), 2 mM L-glutamine, 100 U/ml penicillin, and 100 μg/ml streptomycin. After reaching 80% of confluence, cells were detached and seeded on 6 well plates in complete media, allowed to recover overnight and treated for 2 hours with 1 μM of the test compound (to assess protein synthesis levels in unstressed condition), or for 1 hour with 100 nM and 1 μM of the test compound and then co-treated with 300 nM Tg and 100 nM and 1 μM of the test compound (to assess the recovery of protein synthesis in a stressed condition). Cells treated with Tg alone were used as controls.
After the 2 hours treatments, media were replaced by adding 10 μg/ml puromycin (Sigma Aldrich) in complete media for 30 min. Media were removed and cells were lysed with SDS-PAGE lysis buffer. Lysates were transferred to 1.5 ml tubes and sonicated for 3 minutes and total protein amount were quantified using BCA Protein Assay Kit (Pierce). Equal amount of protein (30 μg) was loaded on SDS-PAGE gels. Proteins were transferred onto 0.2 μm PVDF membranes (BioRad) and probed with primary antibodies diluted in Tris-buffered saline supplemented with 0.1% Tween 20 and 3% bovine serum albumin.
(§1) Puromycin (12D10) antibody was used as primary antibody (Merck Millipore). A HRP-conjugated secondary antibody (Rockland) was employed to detect immune-reactive bands using enhanced chemiluminescence (ECL Western Blotting Substrate, Pierce). Quantification of protein bands was done by densitometry using ImageJ.
Percent increase of protein synthesis in unstressed cells (without Tg treatment) in the presence of media alone or certain test compounds is shown in Table 3 and FIG. 2. The percentage levels were normalized to the media alone condition, which correspond to 100% protein synthesis.
Percent recovery of protein synthesis in stressed cells (with Tg treatment) due to the test compounds at 100 nM or 1 μM is shown in FIGS. 3A and 3B, respectively, and in Table 3. The levels were normalized to the media alone and to Tg alone conditions, which correspond to 100% and 0% respectively.

ATF4 = ATF4 expression inhibition assay (thapsigargin-stressed HEK293T cells, western blot); assay type: cell-based; details: Homo sapiens, HEK-293T; for inhibition at 0.1 µM: 3 h with 100 nM thapsigargin (Tg) and 100 nM test compound; for inhibition at 0.1 µM / inhibition at 1 µM: Tg alone 0%, untreated 100%; for inhibition at 1 µM: 3 h with 100 nM thapsigargin (Tg) and 1 μM test compound; for IC50: 3 h with 100 nM Tg, test compound 1 nM to 1 μM
Description: HEK293T cells were maintained at 37° C. and 5% CO2 in Dulbecco's Modified Eagle's Media (DMEM) supplemented with 10% fetal bovine serum (FBS), 2 mM L-glutamine, 100 U/ml penicillin, and 100 μg/ml streptomycin. […] Cells without treatment or cells treated with Tg alone were used as controls.
After 3 hours of treatment with Tg and the test compound, cells were lysed with SDS-PAGE lysis buffer. Lysates were transferred to 1.5 ml tubes and sonicated for 3 min, and total protein amounts were quantified using BCA Protein Assay Kit (Pierce). Equal amount of proteins were loaded on SDS-PAGE gels. Proteins were transferred onto 0.2 μm PVDF membranes (BioRad) and probed with primary antibodies diluted in Tris-buffered saline supplemented with 0.1% Tween 20 and 3% bovine serum albumin.
as §1, with “ATF4 (11815)” for “Puromycin (12D10)”, “(Cell Signaling Technologies).” for “(Merck Millipore).”, “horseradish peroxidase (HRP)-conjugated” for “HRP-conjugated”
Percentages of ATF4 inhibition after induction with Tg in the presence of 100 nM or 1 μM of certain test compounds are shown in Table 2 and FIG. 1. Percentage of ATF4 inhibition was calculated as the percent reduction normalized to Tg treatment (0% inhibition) and untreated cells (100% inhibition). Also shown in Table 2 is the calculated IC50 for the test compounds. […] Accordingly, inhibition of ATF4 expression as a result of the test compound indicates suppression of the ISR pathway.

[1] = CHO cells stressed with 300 nM Tg, Tg alone 0%
[2] = CHO cells stressed with 300 nM Tg, Tg alone 0%, read-out: % Recovery of protein expression (1 μM test compound)
[3] = unstressed CHO cells, 2 h, read-out: % Protein expression relative to untreated (1 μM test compound)

Structure (SMILES): O=C(COc1ccc(Cl)c(F)c1)N[C@H]1CC[C@H](NC(=O)c2cc3ccncc3o2)CC1 [Compound 24, trans-N-(4-(2-(4-chloro-3-fluorophenoxy)acetamido)cyclohexyl)furo[2,3-c]pyridine-2-carboxamide]
- activity at 0.1 µM (CHO cells; [1]): 11.8%
- activity at 1 µM (CHO cells; [2]): 24.3%
- inhibition at 0.1 µM (ATF4): 18%
- inhibition at 1 µM (ATF4): 54%

Structure (SMILES): O=C(COc1ccc(Cl)cc1)N[C@H]1CC[C@H](NC(=O)C(O)COc2ccc(Cl)cc2)CC1 (stereo partly drawn) [Compound 8, trans-3-(4-chlorophenoxy)-N-(4-(2-(4-chlorophenoxy)acetamido)cyclohexyl)-2-hydroxypropanamide]
- inhibition at 0.1 µM (ATF4): 0%
- inhibition at 1 µM (ATF4): 0%

Structure (SMILES): CC1(C)CC(NC(=O)COc2ccc(Cl)c(F)c2)CC(C)(C)N1CC(O)COc1ccc(Cl)c(F)c1 (stereo not shown) [Compound 25, 2-(4-chloro-3-fluorophenoxy)-N-(1-(3-(4-chloro-3-fluorophenoxy)-2-hydroxypropyl)-2,2,6,6-tetramethylpiperidin-4-yl)acetamide]
- activity at 0.1 µM (CHO cells; [1]): 11.4%
- activity at 1 µM (CHO cells; [2]): 22.9%
- inhibition at 0.1 µM (ATF4): 0%
- inhibition at 1 µM (ATF4): 0%

Structure (SMILES): O=C(COc1ccc(Cl)c(F)c1)N[C@H]1CC[C@H](NC(=O)c2ccc3cc(Cl)ccc3n2)CC1 [Compound 23, trans-6-chloro-N-(4-(2-(4-chloro-3-fluorophenoxy)acetamido)cyclohexyl)quinoline-2-carboxamide]
- activity at 0.1 µM (CHO cells; [1]): 79.2%
- activity at 1 µM (CHO cells; [2]): 176%
- activity at 1 µM (CHO cells; [3]): 120%
- IC50 (ATF4): 2.1 nM
- inhibition at 0.1 µM (ATF4): 97%
- inhibition at 1 µM (ATF4): 99%

Structure (SMILES): O=C(COc1ccc(Cl)c(F)c1)N[C@H]1CC[C@H](NC(=O)C(O)COc2ccc(Cl)c(F)c2)CC1 (stereo partly drawn) [Compound 9, trans-3-(4-chloro-3-fluorophenoxy)-N-(4-(2-(4-chloro-3-fluorophenoxy)acetamido)cyclohexyl)-2-hydroxypropanamide]
- inhibition at 0.1 µM (ATF4): 12%
- inhibition at 1 µM (ATF4): 20%

Structure (SMILES): O=C(COc1ccc(Cl)c(F)c1)NC1CCN(CCCOc2ccc(Cl)c(F)c2)CC1 [Compound 28, 2-(4-chloro-3-fluorophenoxy)-N-(1-(3-(4-chloro-3-fluorophenoxy)propyl)piperidin-4-yl)acetamide]
- activity at 0.1 µM (CHO cells; [1]): 38%
- activity at 1 µM (CHO cells; [2]): 170%
- activity at 1 µM (CHO cells; [3]): 99.3%
- IC50 (ATF4): 25.8 nM
- inhibition at 0.1 µM (ATF4): 88%
- inhibition at 1 µM (ATF4): 97%

Structure (SMILES): O=C(NC1CCN(C[C@H](O)COc2ccc(Cl)c(F)c2)CC1)c1cc2cc(Cl)ccc2o1 (single isomer, unassigned) [Compound 149, (+)-5-chloro-N-(1-(3-(4-chloro-3-fluorophenoxy)-2-hydroxypropyl)piperidin-4-yl)benzofuran-2-carboxamide]
- activity at 0.1 µM (CHO cells; [1]): 107%
- activity at 1 µM (CHO cells; [2]): 281%
- activity at 1 µM (CHO cells; [3]): 138%
- IC50 (ATF4): 29.9 nM
- inhibition at 0.1 µM (ATF4): 62%
- inhibition at 1 µM (ATF4): 96%

Structure (SMILES): O=C(COc1ccc(Cl)cc1)NC1CCN(CC(O)COc2ccc(Cl)cc2)CC1 (stereo not shown) [Compound 5, 2-(4-chlorophenoxy)-N-(1-(3-(4-chlorophenoxy)-2-hydroxypropyl)piperidin-4-yl)acetamide]
- activity at 0.1 µM (CHO cells; [1]): 64.9%
- activity at 1 µM (CHO cells; [2]): 189%
- activity at 1 µM (CHO cells; [3]): 130%
- IC50 (ATF4): 170 nM
- inhibition at 0.1 µM (ATF4): 42%
- inhibition at 1 µM (ATF4): 94%

Structure (SMILES): O=C(NC1CCN(CC(O)COc2ccc(Cl)c(F)c2)CC1)c1ccc2cc(Cl)ccc2c1 (stereo not shown) [Compound 21, 6-chloro-N-(1-(3-(4-chloro-3-fluorophenoxy)-2-hydroxypropyl)piperidin-4-yl)-2-naphthamide]
- activity at 0.1 µM (CHO cells; [1]): 70.5%
- activity at 1 µM (CHO cells; [2]): 182%
- inhibition at 0.1 µM (ATF4): 54%
- inhibition at 1 µM (ATF4): 78%

Structure (SMILES): O=C(NC1CCN(CC(O)COc2ccc(Cl)c(F)c2)CC1)c1cc2cc(Cl)ccc2o1 (stereo not shown) [Compound 29, 5-chloro-N-(1-(3-(4-chloro-3-fluorophenoxy)-2-hydroxypropyl)piperidin-4-yl)benzofuran-2-carboxamide]
- activity at 0.1 µM (CHO cells; [1]): 48.4%
- activity at 1 µM (CHO cells; [2]): 267%
- activity at 1 µM (CHO cells; [3]): 186%
- IC50 (ATF4): 51.8 nM
- inhibition at 0.1 µM (ATF4): 87%
- inhibition at 1 µM (ATF4): 95%

Structure (SMILES): O=C(NC1CCN(C[C@@H](O)COc2ccc(Cl)c(F)c2)CC1)c1ccc2cc(Cl)ccc2n1 (single isomer, unassigned) [Compound 153, (−)-6-chloro-N-(1-(3-(4-chloro-3-fluorophenoxy)-2-hydroxypropyl)piperidin-4-yl)quinoline-2-carboxamide]
- activity at 0.1 µM (CHO cells; [1]): 51.5%
- activity at 1 µM (CHO cells; [2]): 236%
- activity at 1 µM (CHO cells; [3]): 323%
- protein translation (CHO cells; summary of Table 3): increased protein translation
- protein synthesis in a cell versus ATF4 translation (CHO cells; under ISR-stressed or non-ISR stressed conditions): increase protein synthesis in a cell without full inhibition of ATF4 translation
- inhibition at 0.1 µM (ATF4): 0%
- inhibition at 1 µM (ATF4): 0%

Structure (SMILES): O=C(COc1ccc(Cl)c(F)c1)NC1CCN(C[C@@H](O)COc2ccc(Cl)c(F)c2)CC1 (single isomer, unassigned) [Compound 27, (+)-2-(4-chloro-3-fluorophenoxy)-N-(1-(3-(4-chloro-3-fluorophenoxy)-2-hydroxypropyl)piperidin-4-yl)acetamide]
- inhibition at 0.1 µM (ATF4): 54%
- inhibition at 1 µM (ATF4): 73%

Structure (SMILES): O=C(COc1ccc(Cl)c(F)c1)N[C@H]1CCCN(CC(O)COc2ccc(Cl)c(F)c2)C1 (stereo partly drawn) [Compound 11, 2-(4-chloro-3-fluorophenoxy)-N-((3S)-1-(3-(4-chloro-3-fluorophenoxy)-2-hydroxypropyl)piperidin-3-yl)acetamide]
- inhibition at 0.1 µM (ATF4): 0%
- inhibition at 1 µM (ATF4): 0%

Structure (SMILES): O=C(COc1ccc(Cl)c(F)c1)N1CCC(NCC(O)COc2ccc(Cl)c(F)c2)CC1 (stereo not shown) [Compound 14, 2-(4-chloro-3-fluorophenoxy)-1-(4-((3-(4-chloro-3-fluorophenoxy)-2-hydroxypropyl)amino)piperidin-1-yl)ethan-1-one]
- inhibition at 0.1 µM (ATF4): 0%
- inhibition at 1 µM (ATF4): 0%

Structure (SMILES): O=C(COc1ccc(Cl)c(F)c1)N[C@@H]1CCCN(CC(O)COc2ccc(Cl)c(F)c2)C1 (stereo partly drawn) [Compound 12, 2-(4-chloro-3-fluorophenoxy)-N-((3R)-1-(3-(4-chloro-3-fluorophenoxy)-2-hydroxypropyl)piperidin-3-yl)acetamide]
- inhibition at 0.1 µM (ATF4): 0%
- inhibition at 1 µM (ATF4): 0%

Structure (SMILES): O=C(COc1ccc(Cl)cc1)N[C@H]1CC[C@H](NC[C@H](O)COc2ccc(Cl)cc2)CC1 (single isomer, unassigned) [Compound 4, (−)-2-(4-chlorophenoxy)-N-(4-((3-(4-chlorophenoxy)-2-hydroxypropyl)amino)cyclohexyl)acetamide]
- inhibition at 0.1 µM (ATF4): 31%
- inhibition at 1 µM (ATF4): 54%

Structure (SMILES): O=C(COc1ccc(Cl)c(F)c1)N[C@H]1CC[C@H](NC[C@H](O)COc2ccc(Cl)c(F)c2)CC1 (single isomer, unassigned) [Compound 7, (−)-2-(4-chloro-3-fluorophenoxy)-N-(4-((3-(4-chloro-3-fluorophenoxy)-2-hydroxypropyl)amino)cyclohexyl)acetamide]
- inhibition at 0.1 µM (ATF4): 0%
- inhibition at 1 µM (ATF4): 0%

Structure (SMILES): O=C(COc1ccc(Cl)cc1)NC1CCN(C[C@@H](O)COc2ccc(Cl)cc2)CC1 (single isomer, unassigned) [Compound 16, (+)-2-(4-chlorophenoxy)-N-(1-(3-(4-chlorophenoxy)-2-hydroxypropyl)piperidin-4-yl)acetamide]
- inhibition at 0.1 µM (ATF4): 0%
- inhibition at 1 µM (ATF4): 38%
